Laboratory results reported in US9181230B2, “Morpholine compounds and uses thereof” (Hoffmann-La Roche Inc., priority 2013, dated 2015).
Structures can show the parent of a compound that is named as a salt.

How the values were obtained:
mouse TAAR1 = mouse TAAR1 (Mus musculus (Mouse), UniProt Q923Y8); test: Radioligand binding assay on mouse TAAR1; details: mouse TAAR1, membranes of HEK-293 cells, first value of the cell pair mouse/rat
Protocol: (§1) For the construction of expression plasmids the coding sequences of human, rat and mouse TAAR 1 were amplified from genomic DNA essentially as described by Lindemann et al.. The Expand High Fidelity PCR System (Roche Diagnostics) was used with 1.5 mM Mg^2+ and purified PCR products were cloned into pCR2.1-TOPO cloning vector (Invitrogen) following the instructions of the manufacturer. PCR products were subcloned into the pIRESneo2 vector (BD Clontech, Palo Alto, Calif.), and expression vectors were sequence verified before introduction in cell lines.
(§2) HEK293 cells (ATCC # CRL-1573) were cultured essentially as described by Lindemann et al. (2005). For the generation of stably transfected cell lines HEK293 cells were transfected with the pIRESneo2 expression plasmids containing the TAAR coding sequences (described above) with Lipofectamine 2000 (Invitrogen) according to the instructions of the manufacturer, and 24 hrs post transfection the culture medium was supplemented with 1 mg/ml G418 (Sigma, Buchs, Switzerland). After a culture period of about 10 d clones were isolated, expanded and tested for responsiveness to trace amines (all compounds purchased from Sigma) with the cAMP Biotrak Enzyme immunoassay (EIA) System (Amersham) following the non-acetylation EIA procedure provided by the manufacturer.
(A) Radioligand Binding Assay on Mouse TAAR1
(§3) Membrane Preparation and Radioligand Binding.
(§4) HEK-293 cells stably expressing mouse TAAR1 were maintained at 37° C. and 5% CO2 in DMEM high glucose medium, containing fetal calf serum (10%, heat inactivated for 30 min at 56° C.), penicillin/streptomycin (1%), and 375 μg/ml geneticin (Gibco). Cells were released from culture flasks using trypsin/EDTA, harvested, washed twice with ice-cold PBS (without Ca^2+ and Mg^2+), pelleted at 1,000 rpm for 5 min at 4° C., frozen and stored at −80° C. Frozen pellets were suspended in 20 ml HEPES-NaOH (20 mM, pH 7.4) containing 10 mM EDTA and homogenized with a Polytron (PT 6000, Kinematica) at 14,000 rpm for 20 s. The homogenate was centrifuged at 48,000×g for 30 min at 4° C. Subsequently, the supernatant was removed and discarded, and the pellet resuspended in 20 ml HEPES-NaOH (20 mM, pH 7.4) containing 0.1 mM EDTA using the Polytron (20 s at 14,000 rpm). This procedure was repeated and the final pellet resuspended in HEPES-NaOH containing 0.1 mM EDTA and homogenized using the Polytron. Typically, aliquots of 2 ml membrane portions were stored at −80° C. With each new membrane batch the dissociation constant (Kd) was determined via a saturation curve. […] Nonspecific binding was defined as the amount of ^3[H]-(S)-4-[(ethyl-phenyl-amino)-methyl]-4,5-dihydro-oxazol-2-ylamine bound in the presence of 10 μM unlabeled ligand. All compounds were tested at a broad range of concentrations (10 pM to 10 μM) in duplicates. […] The 96 deep well plates were incubated for 1 hr at 4° C. Incubations were terminated by rapid filtration through Unifilter-96 plates (Packard Instrument Company) and glass filters GF/C (Perkin Elmer) presoaked for 1 hr in polyethylenimine (0.3%) and washed 3 times with 1 ml of cold binding buffer. After addition of 45 μl of Microscint 40 (PerkinElmer) the Unifilter-96 plate was sealed and after 1 hr the ratioactivity counted using a TopCount Microplate Scintillation Counter (Packard Instrument Company).

rat TAAR1 = rat TAAR1 (Rattus norvegicus (Rat), UniProt Q923Y9); test: Radioligand binding assay on rat TAAR1; details: rat TAAR1, membranes of HEK-293 cells, second value of the cell pair mouse/rat
rat TAAR1, sequence (Q923Y9 whole entry): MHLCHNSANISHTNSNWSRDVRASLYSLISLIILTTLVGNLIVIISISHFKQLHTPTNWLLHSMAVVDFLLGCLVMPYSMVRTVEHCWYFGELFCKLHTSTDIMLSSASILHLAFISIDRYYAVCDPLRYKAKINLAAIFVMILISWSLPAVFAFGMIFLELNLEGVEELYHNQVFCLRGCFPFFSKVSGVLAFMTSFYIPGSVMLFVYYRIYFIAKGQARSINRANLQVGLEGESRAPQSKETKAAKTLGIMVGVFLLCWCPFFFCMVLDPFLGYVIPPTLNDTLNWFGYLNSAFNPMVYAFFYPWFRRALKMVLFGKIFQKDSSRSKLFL
Protocol: as §1, §2
(B) Radioligand Binding Assay on Rat TAAR1
as §3
as §4, with “rat” for “mouse”

mouse TAAR1, sequence (Q923Y8 whole entry): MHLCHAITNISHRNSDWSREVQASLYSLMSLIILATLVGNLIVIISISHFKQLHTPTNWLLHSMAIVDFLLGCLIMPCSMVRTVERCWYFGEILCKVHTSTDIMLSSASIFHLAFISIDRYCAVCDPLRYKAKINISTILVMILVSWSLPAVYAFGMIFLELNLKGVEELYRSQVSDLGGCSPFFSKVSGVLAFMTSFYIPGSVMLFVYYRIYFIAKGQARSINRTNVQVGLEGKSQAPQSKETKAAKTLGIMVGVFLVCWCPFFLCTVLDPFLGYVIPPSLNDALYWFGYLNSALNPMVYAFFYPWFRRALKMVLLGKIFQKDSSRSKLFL

Row | SMILES | Ki (mouse TAAR1) | Ki (rat TAAR1)
1 | c1ccc2[nH]c(-c3ccc(C4CNCCO4)cc3)nc2c1 (stereo not drawn) [Example 1, 2-(4-(1H-Benzo[d]imidazol-2-yl)phenyl)morpholine hydrochloride] | 0.038 µM | 0.76 µM
2 | Clc1ccc2nc(-c3ccc(C4CNCCO4)cc3)[nH]c2c1 (stereo not drawn) [Example 2, 2-(4-(6-Chloro-1H-benzo[d]imidazol-2-yl)phenyl)morpholine hydrochloride] | 0.0032 µM | 
3 | Clc1ccc(-c2cc(-c3ccc(C4CNCCO4)cc3)n[nH]2)cc1 (stereo not drawn) [Example 3, 2-(4-(5-(4-Chlorophenyl)-1H-pyrazol-3-yl)phenyl)morpholine hydrochloride] | 0.001 µM | 0.0034 µM
4 | Fc1ccc(-c2cc(-c3ccc(C4CNCCO4)cc3)n[nH]2)cc1 (stereo not drawn) [Example 4, 2-(4-(5-(4-Fluorophenyl)-1H-pyrazol-3-yl)phenyl)morpholine hydrochloride] | 0.0012 µM | 0.0059 µM
5 | Clc1ccc(-c2cc(-c3ccc(C4CNCCO4)cc3)n[nH]2)cn1 (stereo not drawn) [Example 5, 2-(4-(5-(6-Chloropyridin-3-yl)-1H-pyrazol-3-yl)phenyl)morpholine hydrochloride] | 0.0044 µM | 0.0631 µM
6 | N#Cc1ccc(-c2cc(-c3ccc(C4CNCCO4)cc3)n[nH]2)cc1 (stereo not drawn) [Example 6, 4-(3-(4-(Morpholin-2-yl)phenyl)-1H-pyrazol-5-yl)benzonitrile hydrochloride] | 0.0019 µM | 0.0335 µM
7 | Brc1cnc2nc(-c3ccc([C@H]4CNCCO4)cc3)[nH]c2c1 [Example 7, (S)-2-(4-(6-bromo-1H-imidazo[4,5-b]pyridin-2-yl)phenyl)morpholine hydrochloride] | 0.0089 µM | 
8 | Clc1cccc(-c2cc(-c3ccc([C@H]4CNCCO4)cc3)n[nH]2)c1 [Example 9, (S)-2-(4-(5-(3-Chlorophenyl)-1H-pyrazol-3-yl)phenyl)morpholine hydrochloride] | 0.0004 µM | 0.0021 µM
9 | Fc1cc(F)c2nc(-c3ccc([C@H]4CNCCO4)cc3)[nH]c2c1 [Example 11, (S)-2-(4-(4,6-Difluoro-1H-benzo[d]imidazol-2-yl)phenyl)morpholine hydrochloride] | 0.009 µM | 
10 | Fc1ccc(-c2cc(-c3ccc([C@H]4CNCCO4)cc3)n[nH]2)c(F)c1 [Example 13, (S)-2-(4-(5-(2,4-Difluorophenyl)-1H-pyrazol-3-yl)phenyl)morpholine hydrochloride] | 0.0003 µM | 
11 | Fc1ccc(-c2cc(-c3ccc([C@@H]4CNCCO4)cc3)n[nH]2)c(F)c1 [Example 14, (R)-2-(4-(5-(2,4-Difluorophenyl)-1H-pyrazol-3-yl)phenyl)morpholine hydrochloride] | 0.0008 µM | 
12 | Cc1cc2nc(-c3ccc([C@H]4CNCCO4)cc3)[nH]c2cc1C [Example 16, (S)-2-(4-(5,6-Dimethyl-1H-benzo[d]imidazol-2-yl)phenyl)morpholine hydrochloride] |  | 1.14 µM
13 | Fc1ccc(-n2cc(-c3ccc([C@H]4CNCCO4)cc3)nn2)cc1 [Example 18, (S)-2-(4-(1-(4-Fluorophenyl)-1H-1,2,3-triazol-4-yl)phenyl)morpholine hydrochloride] | 0.002 µM | 
14 | Fc1ccc(-c2ncn(-c3ccc([C@H]4CNCCO4)cc3)n2)cc1 [Example 25, (S)-2-(4-(3-(4-Fluorophenyl)-1H-1,2,4-triazol-1-yl)phenyl)morpholine hydrochloride] | 0.0034 µM | 
15 | Fc1ccc(-c2cn(-c3ccc([C@H]4CNCCO4)cc3)nn2)cc1 [Example 27, (S)-2-(4-(4-(4-Fluorophenyl)-1H-1,2,3-triazol-1-yl)phenyl)morpholine hydrochloride] | 0.0004 µM | 
16 | O=C(Nc1cc(-c2ccc([C@H]3CNCCO3)cc2)n[nH]1)c1ccc(F)cc1 [Example 30, (S)-4-Fluoro-N-(3-(4-(morpholin-2-yl)phenyl)-1H-pyrazol-5-yl)benzamide hydrochloride] | 0.0022 µM | 
17 | N#Cc1ccc(-c2cc(-c3ccc([C@H]4CNCCO4)cc3)n[nH]2)c(F)c1 [Example 33, (S)-3-Fluoro-4-(3-(4-(morpholin-2-yl)phenyl)-1H-pyrazol-5-yl)benzonitrile hydrochloride] | 0.0016 µM | 
18 | Fc1ccc(-n2cc(-c3ccc([C@@H]4CNCCO4)cc3)nn2)cc1 [Example 35, (R)-2-(4-(1-(4-Fluorophenyl)-1H-1,2,3-triazol-4-yl)phenyl)morpholine hydrochloride] | 0.0017 µM | 
19 | Fc1ccc(-c2ncn(-c3ccc([C@@H]4CNCCO4)cc3)n2)cc1 [Example 36, (R)-2-(4-(3-(4-Fluorophenyl)-1H-1,2,4-triazol-1-yl)phenyl)morpholine hydrochloride] | 0.0097 µM | 
20 | Fc1ccc(-c2cn(-c3ccc([C@@H]4CNCCO4)cc3)nn2)cc1 [Example 39, (R)-2-(4-(4-(4-Fluorophenyl)-1H-1,2,3-triazol-1-yl)phenyl)morpholine hydrochloride] | 0.001 µM | 
21 | Clc1cc(-c2cc(-c3ccc([C@H]4CNCCO4)cc3)n[nH]2)ccn1 [Example 42, (S)-2-(4-(5-(2-Chloropyridin-4-yl)-1H-pyrazol-3-yl)phenyl)morpholine hydrochloride] | 0.0016 µM | 
22 | Fc1ccc(-c2nc3cc([C@H]4CNCCO4)ccc3[nH]2)cc1 [Example 43, (S)-2-(2-(4-Fluorophenyl)-1H-benzo[d]imidazol-5-yl)morpholine hydrochloride] | 0.0014 µM | 
23 | Fc1ccc(-c2nc3cc([C@@H]4CNCCO4)ccc3[nH]2)cc1 [Example 44, (R)-2-(2-(4-Fluorophenyl)-1H-benzo[d]imidazol-5-yl)morpholine hydrochloride] | 0.004 µM | 
24 | c1cnc2[nH]c3ccc([C@H]4CNCCO4)cc3c2c1 [Example 45, (S)-2-(9H-Pyrido[2,3-b]indol-6-yl)morpholine hydrochloride] |  | 1 µM
25 | FC(F)(F)c1ccc2c(n1)[nH]c1ccc([C@H]3CNCCO3)cc12 [Example 49, (S)-2-(2-(Trifluoromethyl)-9H-pyrido[2,3-b]indol-6-yl)morpholine hydrochloride] | 0.0032 µM | 
26 | FC(F)(F)c1cc(-c2nc3ccc([C@@H]4CNCCO4)cc3o2)ccn1 [Example 54, (R)-6-(Morpholin-2-yl)-2-(2-(trifluoromethyl)pyridin-4-yl)benzo[d]oxazole hydrochloride] |  | 0.448 µM
27 | FC(F)(F)c1cc(-c2nc3ccc([C@H]4CNCCO4)cc3o2)ccn1 [Example 55, (S)-6-(Morpholin-2-yl)-2-(2-(trifluoromethyl)pyridin-4-yl)benzo[d]oxazole hydrochloride] |  | 0.304 µM
